We go through three compounds from ChEMBL document CHEMBL1131657, “Syntheses and kinetic evaluation of hydroxamate-based peptide inhibitors of glyoxalase I” (Bioorg Med Chem Lett, 1998).

SMILES strings stand for the structures. Where “and” joins values, the source holds several entries; their conditions need not be identical. Identical values can stand only once. *1 amine or outer side, *2 acyl side, *3 side chain or, on linkers, in order; H or OH if unused. Where a SMILES comes first, the peptide text is derived from it. The star is where a group is joined. γGlu = O=C(O)[CH](CCC(=O)[*:2])N[*:1]; NHOH = ON*

Assay [1] has as its system SNB-75. In words: Antitumor activity was evaluated for reduction of growth of SNB-75 cancer cells at a concentration of 100 uM. In kind it is functional, Homo sapiens.
The subject of assay [2] is Plasmodium falciparum. In words: Antimalarial activity against Plasmodium falciparum W2 Indochina; moderate activity. In kind it is functional, organism-based.
The test system of assay [3] is Plasmodium falciparum. As to the kind of experiment: Antimalarial activity against Plasmodium falciparum D6 (Sierra Leone); moderate activity. Type of assay: functional, organism-based.
Assay [4] deals with A498. In words: Antitumor activity was evaluated for reduction of growth of renal cancer (A498) cells at a concentration of 100 uM. Type of assay: functional, Homo sapiens.
Assay [5] relates to SNB-75. As to the kind of experiment: Antitumor activity was evaluated for reduction of growth of CNS cancer (SNB-75)cells at a concentration of 100 uM. Type of assay: functional, Homo sapiens.
Assay [6] in a line: Antitumor activity was evaluated for reduction of growth of non-small cell lung (NCL-H522) cancer cells at a concentration of 100 uM. Type of assay: functional, Homo sapiens, Cancer cell lines.
The test system of assay [7] is HL-60. In words: Antitumor activity was evaluated for reduction of growth of leukemia(HL-60 (TB)) cancer cells at a concentration of 100 uM. In kind it is functional, Homo sapiens.

In assay [1], `CN(O)C(=O)CCC(NC(=O)CCC(N)C(=O)O)C(=O)NCC(=O)O` (stereo not given) had a Reduction of 40%. For the same compound, the Activity entry in assay [2] and in assay [3] was “Poor or moderate activity” throughout.

`CCOC(=O)CNC(=O)C(CCC(=O)NO)NC(=O)CCC(N)C(=O)O` (stereo not given) (γGlu-Glu(NHOH)-Gly-OEt; configuration not given here) returned a Reduction in assay [4] of 31%.

Turning to `NC(CCC(=O)NC(CCC(=O)NO)C(=O)NCC(=O)O)C(=O)O` (stereo not given) (γGlu-Glu(NHOH)-Gly-OH; configuration not given here), the Reduction in assay [5] was 31%; in assay [4] it was 34% and 31%; in assay [6] it was 38%; in assay [7] it was 46%. The Activity result in assay [2] and in assay [3] was “Poor or moderate activity” in each case.
